The text below walks through data of publication PMC8615111, “Phenolic Thiazoles with Antioxidant and Antiradical Activity. Synthesis, In Vitro Evaluation, Toxicity, Electrochemical Behavior, Quantum Studies and Antimicrobial Screening” (Antioxidants, 2021).

Each structure is given as a SMILES string. Read-outs that look alike come from different tables or passages of the source. Marks after values point to notes of the source that are not given here.

A short description of one data set: Fe^2+ chelation assay. It counts as biochemical. The protocol:
The protocol used for assessing Fe^2+ chelating capacity of the compounds was adapted from a report of Benzie and Strain and previously reported by our group. The iron(II) chelation ability of compounds was calculated using Equation (7):(7) iron chelation (%)=control absorbance−sample absorbance/control absorbance×100
The chelating potential for the ferrous ions of the new compounds was determined, based on their competition for Fe^2+ with ferrozine.

For the next data set, the system named is E. coli ATCC 25922. As to the kind of experiment: Antimicrobial activity, modified microdilution. To be noted: Escherichia coli, ATCC25922. It counts as cell-based.
In a further data set the test system is E. coli ATCC 8739. As to the kind of experiment: Antimicrobial activity, modified microdilution. The following applies: Escherichia coli, ATCC8739. It counts as cell-based.
In the next data set the test system is S. aureus ATCC 25923. As to the kind of experiment: Antimicrobial activity, modified microdilution. It counts as cell-based. The following applies: Staphylococcus aureus, ATCC25923.
For the next data set, the system named is S. enterica ISM 83/37. The data set is described as follows: Antimicrobial activity, modified microdilution. It counts as cell-based. The following applies: Salmonella enterica, ISM83/37.
A further data set deals with S. pyogenes ATCC 19615. As to the kind of experiment: Antimicrobial activity, modified microdilution. To be noted: Streptococcus pyogenes, ATCC19615. It counts as cell-based.
Data set [1] relates to S. typhimurium ATCC 14028. As to the kind of experiment: Antimicrobial activity, modified microdilution. It counts as cell-based. The following applies: Salmonella enterica.
Details of data set [2]: method as in doi:10.1016/j.molstruc.2021.131278. To be noted: cited from earlier work.
Details of data set [3]: method as in doi:10.1016/j.molstruc.2021.131278. The following applies: cited from earlier work. This is another data set of the same source.
Details of data set [4]: method as in doi:10.1016/j.molstruc.2021.131278. To be noted: cited from earlier work. The source holds these as a separate data set.
The subject of another data set is HaCaT cells. The data set is described as follows: HaCaT cells integrity, acridine orange staining. It counts as cell-based, human. To be noted: treatment at IC50 concentration for 24 h. As to the method: The cells were left to attach to 10 mm Ø glass slides for 24 h, at a confluence of 3 × 10^4 cells/glass slide. The slides were incubated for 10 min in acridine orange 1 µM in PBS 0.01M, and then the slides were investigated with an epifluorescence microscope Optika 510LD1 with 5 MP CCD cameras at 525 nm (green filter).

The nature of data set [5]: Scavenging of hydrogen peroxide by cyclic voltammetry on Au SPE. The following applies: 0.5 mM H2O2, 0.5 mM compound, 0.1 M KCl. The protocol:
The antioxidant properties were evaluated in terms of their activity against some free radicals, and other compounds reported in the literature, relevant for this purpose, such as: • ferric ions (Fe^3+)—used to test the reduction of the antioxidant character of the compounds; • DPPH˙ free radical– used to test the scavenging effect of the compounds on this radical; • hydrogen peroxide (H2O2)—used to test the scavenging effect of the synthesized molecules on this compound; • 2,2,6,6-tetramethylpiperidinyl-1-oxy (TEMPO)—used to test the scavenging effect of the synthesized molecules on this compound.
The anodic oxidation of H2O2 was used to determine the antioxidant character of compounds in different samples. Gold-based SPEs purchased from Dropsens were used as working electrode for monitoring the change in the oxidation peak of hydrogen peroxide due to the addition of different amounts of the novel compounds. The oxidation signal of H2O2 obtained at the sweep of the potential in the range from −0.5 to 1.2 V on the gold electrode can be observed in Figure A6. The scavenging abilities of compounds from 1 to 8 on […] are compared in this figure. The addition of an antioxidant, by its ability to consume H2O2, determines the decrease of anodic peak characteristic for H2O2. […]

Where [6] appears, read: E. coli ATCC 25922, read-out: MIC.
Setting [7] is: E. coli ATCC 8739, read-out: MIC.
[8] abbreviates: S. aureus ATCC 25923, read-out: MIC.
Setting [9] is: S. pyogenes ATCC 19615, read-out: MIC.
Setting [10] is: S. typhimurium ATCC 14028, read-out: MIC.

As to `C/C(=N\Nc1nc(C)cs1)c1ccc(O)cc1O` [Compound 5a, Dihydroxy-Phenyl-Thiazol-Hydrazinium chloride], the “Chelation Capacity (%), ferrous ions” value in “Fe^2+ chelation assay” (150 µg/mL) is reported as 11.17%; in the data set “Fe^2+ chelation assay” (200 µg/mL), 21.69%; in data set [4] (50 µg/mL), 0.27 * %; in data set [4] (100 µg/mL), 5.06 * %. Also, the minimal inhibitory concentration (MIC) (in the data set with E. coli ATCC 25922; in the data set with E. coli ATCC 8739; in the data set on S. aureus ATCC 25923; in the data set with S. enterica ISM 83/37; with S. pyogenes ATCC 19615; in [1]) was more than 100 µg/mL throughout. Moreover, the “% of ABTS˙^+ Scavenged” value in data set [2] (0.5 µg/mL) is given as 32.42 * %; in [2] (0.75 µg/mL), 37.23 * %; in [2] (1 µg/mL) it was 41.36 * %; in data set [2] (1.5 µg/mL) it was 49.77 * %; in data set [2] (2.5 µg/mL), 70.60 * %. For the same compound, the IC50 in [2] (ABTS˙^+ scavenging) is 1.45 * µg/mL; in [3] (DPPH˙ scavenging), 3.20 * µg/mL. Besides, the “% of DPPH˙ Scavenged” value in [3] (1 µg/mL) was 13.11 * %; in [3] (1.5 µg/mL), 20.68 * %; in data set [3] (2 µg/mL), 28.87 * %; in data set [3] (3 µg/mL) it was 48.22 * %; in [3] (5 µg/mL), 79.92 * %.

In the case of `Cc1csc(N/N=C/c2ccc(O)cc2O)n1.Cl` [Compound 5b, (E)-2-(2,4-dihydroxybenzylidene)-1-(4-methylthiazol-2-yl)hydrazin-1-ium chloride], the “Chelation Capacity (%), ferrous ions” value in the data set “Fe^2+ chelation assay” (50 µg/mL) came out at 1.18%; in the data set “Fe^2+ chelation assay” (100 µg/mL), 8.95%; in the data set “Fe^2+ chelation assay” (150 µg/mL), 18.42%; in “Fe^2+ chelation assay” (200 µg/mL), 31.33%. The MIC (in the data set with E. coli ATCC 25922 (setting [6]); with E. coli ATCC 8739 (setting [7]); in the data set on S. aureus ATCC 25923 (setting [8]); with S. enterica ISM 83/37; in the data set on S. pyogenes ATCC 19615 (setting [9]); in data set [1] (setting [10])) was more than 100 µg/mL in each case.

Regarding `Br.C/C(=N\Nc1nc(-c2ccccc2)cs1)c1ccc(O)cc1O` [Compound 6a, (E)-2-(1-(2,4-dihydroxyphenyl)ethylidene)-1-(4-phenylthiazol-2-yl)hydrazin-1-ium bromide], the “Chelation Capacity (%), ferrous ions” value was found to be 0.07% in “Fe^2+ chelation assay” (50 µg/mL), 7.14% in the data set “Fe^2+ chelation assay” (100 µg/mL), 14.50% in “Fe^2+ chelation assay” (150 µg/mL) and 25.03% in “Fe^2+ chelation assay” (200 µg/mL). Besides, the MIC (against E. coli ATCC 25922; against E. coli ATCC 8739; against S. aureus ATCC 25923; with S. enterica ISM 83/37; against S. pyogenes ATCC 19615; in data set [1]) was more than 100 µg/mL each time.

For `Br.Oc1ccc(/C=N/Nc2nc(-c3ccccc3)cs2)c(O)c1` [Compound 6b, (E)-2-(2,4-dihydroxybenzylidene)-1-(4-phenylthiazol-2-yl)hydrazin-1-ium bromide], the “Chelation Capacity (%), ferrous ions” value was 0.07% in “Fe^2+ chelation assay” (50 µg/mL), 4.84% in the data set “Fe^2+ chelation assay” (100 µg/mL), 13.39% in “Fe^2+ chelation assay” (150 µg/mL) and 22.27% in “Fe^2+ chelation assay” (200 µg/mL). In addition, the minimum inhibitory concentration (MIC) (with E. coli ATCC 25922; in the data set on E. coli ATCC 8739; against S. aureus ATCC 25923; with S. enterica ISM 83/37; with S. pyogenes ATCC 19615; in data set [1]) was more than 100 µg/mL throughout.

For the compound `Br.C/C(=N\Nc1nc(-c2ccc(O)c(C(N)=O)c2)cs1)c1ccc(O)cc1O` [Compound 7a, (E)-1-(4-(3-carbamoyl-4-hydroxyphenyl)thiazol-2-yl)-2-(1-(2,4-dihydroxyphenyl)ethylidene)hydrazin-1-ium bromide], the “Chelation Capacity (%), ferrous ions” value came out at 0.07% in “Fe^2+ chelation assay” (50 µg/mL), 1.73% in the data set “Fe^2+ chelation assay” (100 µg/mL), 2.29% in the data set “Fe^2+ chelation assay” (150 µg/mL) and 3.88% in the data set “Fe^2+ chelation assay” (200 µg/mL). The MIC was more than 100 µg/mL against E. coli ATCC 25922; more than 100 µg/mL with E. coli ATCC 8739; 62.4 µg/mL against S. aureus ATCC 25923; more than 100 µg/mL in the data set on S. enterica ISM 83/37; 31.2 µg/mL against S. pyogenes ATCC 19615; more than 100 µg/mL in [1]. Besides, the “morphological effect on HaCaT cells, acridine orange staining” value in the data set on HaCaT cells was “induced a necroptotic aspect of the cells”.

In the case of `Br.NC(=O)c1cc(-c2csc(N/N=C/c3ccc(O)cc3O)n2)ccc1O` [Compound 7b, (E)-1-(4-(3-carbamoyl-4-hydroxyphenyl)thiazol-2-yl)-2-(2,4-dihydroxybenzylidene) hydrazin-1-ium bromide], the “Chelation Capacity (%), ferrous ions” value in the data set “Fe^2+ chelation assay” (50 µg/mL) is recorded as 0.07%; in the data set “Fe^2+ chelation assay” (100 µg/mL) it was 3.44%; in “Fe^2+ chelation assay” (150 µg/mL), 9.13%; in “Fe^2+ chelation assay” (200 µg/mL), 16.28%. Also, the MIC (in the data set on E. coli ATCC 25922; in the data set on E. coli ATCC 8739; with S. aureus ATCC 25923; against S. enterica ISM 83/37; against S. pyogenes ATCC 19615; in data set [1]) was more than 100 µg/mL in each case.

Turning to `C/C(=N\Nc1nc(-c2ccc(O)c(O)c2)cs1)c1ccc(O)cc1O.Cl` [Compound 8a, (E)-2-(1-(2,4-dihydroxyphenyl)ethylidene)-1-(4-(3,4-dihydroxyphenyl)thiazol-2-yl)hydrazin-1-ium chloride], the “Chelation Capacity (%), ferrous ions” value came to 7.73% in “Fe^2+ chelation assay” (50 µg/mL), 12.28% in the data set “Fe^2+ chelation assay” (100 µg/mL), 17.60% in the data set “Fe^2+ chelation assay” (150 µg/mL) and 22.64% in “Fe^2+ chelation assay” (200 µg/mL). Also, the “scavenging effect on H2O2” value in [5] was “highest scavenging effect”. For the same compound, the MIC (in the data set with E. coli ATCC 25922 (setting [6]); with E. coli ATCC 8739 (setting [7]); in the data set on S. aureus ATCC 25923 (setting [8]); against S. enterica ISM 83/37; with S. pyogenes ATCC 19615 (setting [9]); in data set [1] (setting [10])) was more than 100 µg/mL each time. In the data set with HaCaT cells, the “morphological effect on HaCaT cells, acridine orange staining” value is “induced nuclear fragmentation”.

For the compound `Cl.Oc1ccc(/C=N/Nc2nc(-c3ccc(O)c(O)c3)cs2)c(O)c1` [Compound 8b, (E)-2-(2,4-dihydroxybenzylidene)-1-(4-(3,4-dihydroxyphenyl)thiazol-2-yl)hydrazin-1-ium chloride], the “Chelation Capacity (%), ferrous ions” value came out at 10.74% in “Fe^2+ chelation assay” (50 µg/mL), 18.15% in “Fe^2+ chelation assay” (100 µg/mL), 25.06% in “Fe^2+ chelation assay” (150 µg/mL) and 33.38% in “Fe^2+ chelation assay” (200 µg/mL). For the same compound, the MIC (in the data set on E. coli ATCC 25922 (setting [6]); in the data set with E. coli ATCC 8739 (setting [7]); in the data set with S. aureus ATCC 25923 (setting [8]); against S. enterica ISM 83/37; with S. pyogenes ATCC 19615 (setting [9]); in [1] (setting [10])) was more than 100 µg/mL throughout.
